Results reported in BindingDB's records for doi:10.1074/jbc.M809430200 (The Scripps Research Institute, 2009).

Legend:
[1] = molecular target: Mitogen-activated protein kinase 10 (Homo sapiens, UniProt P53779); experiment: Fluorescence Assay; settings: pH 7; 22 °C
Method: (§1) Homogeneous time-resolved fluorescence assay is an enzyme inhibition studies that were performed in 384-well polystyrene homogeneous time-resolved fluorescence plates (grainier).

[2] = molecular target: Mitogen-activated protein kinase 8 (Homo sapiens, UniProt P45983); experiment: Fluorescence Assay; settings: pH 7; 22 °C
Method: as §1

[3] = molecular target: Mitogen-activated protein kinase 14 (p38α) (Homo sapiens) (UniProt Q16539); experiment: Homogeneous time-resolved fluorescence assay is an enzyme inhibition studies that were performed in 384-well polystyrene homogeneous time-resolved fluorescence plates (grainier).; settings: pH 7

Sequence of Mitogen-activated protein kinase 8 (P45983 whole entry): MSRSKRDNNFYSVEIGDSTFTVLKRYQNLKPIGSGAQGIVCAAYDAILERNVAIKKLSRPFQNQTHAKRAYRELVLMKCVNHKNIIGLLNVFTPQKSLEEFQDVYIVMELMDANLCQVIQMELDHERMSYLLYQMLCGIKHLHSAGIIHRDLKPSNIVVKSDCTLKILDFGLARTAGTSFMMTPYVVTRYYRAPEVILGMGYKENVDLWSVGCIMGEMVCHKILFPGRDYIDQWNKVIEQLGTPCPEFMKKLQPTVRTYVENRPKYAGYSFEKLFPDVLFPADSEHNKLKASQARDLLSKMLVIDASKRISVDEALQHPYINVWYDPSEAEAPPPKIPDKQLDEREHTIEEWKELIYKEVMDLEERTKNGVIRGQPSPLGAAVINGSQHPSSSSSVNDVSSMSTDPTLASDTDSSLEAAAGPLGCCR
Sequence of Mitogen-activated protein kinase 10 (P53779 whole entry): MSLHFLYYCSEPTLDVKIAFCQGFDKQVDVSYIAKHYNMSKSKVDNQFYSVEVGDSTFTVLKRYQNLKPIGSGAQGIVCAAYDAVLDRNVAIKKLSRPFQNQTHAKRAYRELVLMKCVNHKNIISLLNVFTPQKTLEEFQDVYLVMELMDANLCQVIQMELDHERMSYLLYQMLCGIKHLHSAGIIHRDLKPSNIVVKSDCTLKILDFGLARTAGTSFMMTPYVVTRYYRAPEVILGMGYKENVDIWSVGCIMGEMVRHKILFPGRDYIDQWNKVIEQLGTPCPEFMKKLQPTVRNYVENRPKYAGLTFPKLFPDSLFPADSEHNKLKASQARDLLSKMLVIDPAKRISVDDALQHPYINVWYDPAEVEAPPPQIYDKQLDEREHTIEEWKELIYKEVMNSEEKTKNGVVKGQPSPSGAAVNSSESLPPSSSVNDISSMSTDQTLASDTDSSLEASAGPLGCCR

Structure (SMILES)	IC50 [1] [nM]	IC50 [2] [nM]	IC50 [3] [nM]
COc1cc(NC(=O)c2cccc(-n3cc(NC(=O)Nc4ccccc4)cn3)c2)cc(OC)c1OC [Aminopyrazole inhibitor, 3451]	25	400	3700
COc1cc(NC(=O)c2cccc(-n3cc(NC(=O)Nc4cccc(C)c4)cn3)c2)cc(OC)c1OC [Aminopyrazole inhibitor, 3576]	7	170	> 20000
Cc1cncc(NC(=O)c2cccc(-n3cc(NC(=O)Nc4ccccc4Cl)cn3)c2)c1 [Aminopyrazole inhibitor, 4326]	55	1400	> 20000
Cc1cncc(NC(=O)c2cc(N3CCOCC3)cc(-n3cc(NC(=O)Nc4ccccc4Cl)cn3)c2)c1 [Aminopyrazole inhibitor, 4643]	1500	> 20000	> 20000

Further compounds by falling IC50 [1], results first:

IC50 [1] [nM]	IC50 [2] [nM]	IC50 [3] [nM]	Structure (SMILES)
2200	> 20000	> 20000	Cc1cncc(NC(=O)c2cc(N(C)C)cc(-n3cc(NC(=O)Nc4ccccc4Cl)cn3)c2)c1 [Aminopyrazole inhibitor, 4642]
2100	> 20000	> 20000	Cc1cccc(NC(=O)Nc2cnn(-c3cccc(C(=O)NCCN4CCOCC4)c3)c2)c1 [Aminopyrazole inhibitor, 4018]
480	–	–	COc1cc(NC(=O)c2cccc(-n3cc(NC(=O)Nc4ccc(Cl)cc4)cn3)c2)cc(OC)c1OC [Aminopyrazole inhibitor, 3583]
350	–	> 20000	O=C(Nc1cnn(-c2cccc(C(=O)NCCCN3CCOCC3)c2)c1)Nc1ccccc1Cl [Aminopyrazole inhibitor, 4276]
23	560	> 20000	COc1cc(NC(=O)c2cccc(-n3cc(NC(=O)Nc4ccccc4Cl)cn3)c2)cc(OC)c1OC [Aminopyrazole inhibitor, 3528]
